Tests used:
[1] = pterin suspensions tested by the NIH; cited from earlier work
[2] = tested on: C3H/HeN-MTV+ mammary gland adenocarcinoma; settings: oral gavage 3/16 mL of 5 mM pterin in 1.25 mM CaCl2 daily (about 7 mg/kg/day) for 8 days; Figure One
Description: LaRusso, P., et al. Cancer Research 50: 4900-4905 (1990). T/C is the ratio between the median tumor volume (MTV) of the Test group of tumor producing mice and the MTV of the Control group of mice. […] The median tumor volume of each group is determined, including zeros (remissions), for each day of measurement. The T/C value in percentage is an indication of antitumor effectiveness (Figure Two). A T/C equal to or less than 42% is considered significant antitumor activity. A T/C value <10% is indicative of a high degree of antitumor activity and is the level used by the National Cancer Institute to justify systematic toxicology studies preliminary to Investigational New Drug (IND) filing (termed DN-2 level activity).
The A-line at 42% represents the level of activity established by the N.C.I. for “significant antitumor activity”. The B-line at about 10% depicts the level representing a “high degree of antitumor activity”.

[3] = Treatment toxicity (body weight reduction) in athymic nude mice; format: in vivo; settings: oral gavage once daily for 14 days; assessed from reductions in body weight
Description: MDA MB 231 breast cancer cells (5,000,000 cells in 100 uL of phosphate buffered saline) were injected subcutaneously into the right leg of female immunodeficient athymic nude mice. When the tumors reached a mean diameter of 3-5 mm, the mice were divided into two groups (8 mice per treatment group), and the treatment begun. The mice were treated by oral gavage once daily for 14 days with either 3/16 mL of the vehicle control (water) or with 3/16 mL of 5 mM CaCl2 .Pterin from Example 2.
Tumor dimensions and body weights were measured 4 times weekly for approximately three weeks from the start of treatment. Tumors were measured in three planes using Vernier calipers, and tumor volume (V) was calculated as follows: V=pi(x x y x z)/6, where x, y, and z are the tumor measurements minus skin thickness. The mean tumor volume was calculated at each time point. For each group, the mean of the ratio V/Vo was plotted as a function of time after treatment, and tumor growth delay calculated. Treatment toxicity was assessed from reductions in body weight after treatment. The mice were sacrificed if their tumor volumes reached greater than or equal to 1600 mm^3 or weight loss exceeded 25%.

[4] = tested on: MDA MB 231 breast cancer cells; assay: Human breast tumor xenograft in athymic nude mice, oral gavage; format: in vivo; settings: oral gavage once daily for 14 days, 3/16 mL, Figure Three
Description: This study evaluated the activity of the test agent, CaPterin, on human mammary tumor xenografts in mice. Athymic nude (nu/nu) female mice, age 3-4 weeks, were purchased from Harlan Spreague Dawley, Inc. (Indianapolis, Ind.). The animals were housed four per cage in sterile filter-topped cages in ventilated cage racks and Microisolator™ cages (LabProducts, DE). Upon arrival, the mice were quarantined for at least four working days before use. The animal facility is AAALAC-accredited. Temperature is maintained at 72+/−5° F. and relative humidity at 35-70%; a 12-hour light/dark cycle was used. The mice were fed sterile, autoclavable, certified Purina rodent chow ad libitum. […] The water supply is analyzed quarterly for metals and trace contaminants. […]
Tumor dimensions and body weights were measured 4 times weekly for approximately three weeks from the start of treatment. Tumors were measured in three planes using Vernier calipers, and tumor volume (V) was calculated as follows: V=pi(x x y x z)/6, where x, y, and z are the tumor measurements minus skin thickness. The mean tumor volume was calculated at each time point. For each group, the mean of the ratio V/Vo was plotted as a function of time after treatment, and tumor growth delay calculated. Treatment toxicity was assessed from reductions in body weight after treatment. […]

Nc1nc2nccnc2c(=O)[nH]1 [Pterin]
antineoplastic activity [1]: no significant antineoplastic activity

CaCl2(pterin)4
median tumor volume (MTV) relative to controls [2]: strongly regresses tumor growth relative to controls

CaCl2(pterin)4 [CaPterin]
toxicity throughout the course of treatment [3]: no evidence of toxicity | mean growth response as relative tumor volume (V/Vo) relative to controls [4]: strongly regresses tumor growth relative to controls

Reference: US6358953B1, “Pterin antineoplastic agents” (priority 1998, dated 2002)
